According to PMC2248166, “Quantitative peptide binding motifs for 19 human and mouse MHC class I molecules derived using positional scanning combinatorial peptide libraries” (Immunome Research, 2008):
Where a SMILES comes first, the peptide text is derived from it.

Target: HLA B*1503 (Homo sapiens, UniProt P01889, A329T/A93T/A95T/C349S/D201E/D98Y/E187L/E204Q/K202T/N87E/Q94N/R155S/R180L/S121R/S35A/V306I/V36M/Y140S/Y91S)
Test: biochemical
Format: binding

Row | Structure (SMILES) | IC50 [nM]
1 | CSCC[C@H](NC(=O)[C@@H](N)CC(C)C)C(=O)N[C@H](C(=O)N[C@@H](CO)C(=O)NCC(=O)N1CCC[C@H]1C(=O)N[C@@H](CC(N)=O)C(=O)N[C@H](C(=O)N[C@H](C(=O)O)C(C)C)C(C)C)C(C)C [3102.1249] (H-LMVSGPNVV-OH) | 3.8
2 | CC[C@H](C)[C@H](N)C(=O)N[C@@H](CCCCN)C(=O)N[C@H](C(=O)N[C@H](C(=O)N[C@@H](C)C(=O)N[C@@H](C)C(=O)N[C@@H](CO)C(=O)N1CCC[C@H]1C(=O)N[C@@H](CCSC)C(=O)O)[C@@H](C)O)C(C)C [3102.1251] (H-IKVTAASPM-OH) | 2.8
3 | CSCC[C@H](NC(=O)[C@@H](N)CCCCN)C(=O)N[C@@H](C)C(=O)N[C@@H](C)C(=O)N[C@@H](CC(=O)O)C(=O)N[C@@H](CCCNC(=N)N)C(=O)NCC(=O)N[C@@H](C)C(=O)N[C@@H](Cc1ccccc1)C(=O)O [3102.1255] (H-KMAADRGAF-OH) | 2.5
4 | CC(C)[C@H](NC(=O)[C@H](CCCCN)NC(=O)[C@@H](N)CCCCN)C(=O)N[C@@H](Cc1ccc(O)cc1)C(=O)N[C@H](C(=O)N[C@@H](Cc1ccccc1)C(=O)N[C@@H](Cc1ccccc1)C(=O)N[C@@H](CCCCN)C(=O)N[C@@H](Cc1ccccc1)C(=O)O)[C@@H](C)O [3102.1257] (H-KKVYTFFKF-OH) | 3.6
5 | CC[C@H](C)[C@H](NC(=O)[C@H](Cc1ccc(O)cc1)NC(=O)[C@H](CCC(N)=O)NC(=O)[C@@H](N)Cc1ccc(O)cc1)C(=O)N[C@@H](Cc1ccccc1)C(=O)N[C@@H](CC(C)C)C(=O)N[C@@H](CO)C(=O)N[C@@H](Cc1ccccc1)C(=O)N[C@@H](Cc1ccccc1)C(=O)O [3102.1259] | 0.94
6 | CC[C@H](C)[C@H](N)C(=O)N[C@@H](CC(C)C)C(=O)N[C@@H](Cc1c[nH]cn1)C(=O)N[C@H](C(=O)N[C@@H](CC(=O)O)C(=O)N[C@H](C(=O)N[C@@H](CC(C)C)C(=O)N[C@@H](CO)C(=O)N[C@@H](Cc1ccccc1)C(=O)O)[C@@H](C)CC)C(C)C [3102.1261] (H-ILHVDILSF-OH) | 24
7 | CC(C)C[C@H](NC(=O)[C@H](CCC(=O)O)NC(=O)[C@@H](NC(=O)[C@H](CO)NC(=O)[C@H](CO)NC(=O)[C@@H](NC(=O)[C@H](CCC(N)=O)NC(=O)[C@@H](N)CO)C(C)C)[C@@H](C)O)C(=O)N[C@@H](Cc1ccccc1)C(=O)O [3102.1264] (H-SQVSSTELF-OH) | 1.8
8 | CC(C)C[C@H](N)C(=O)N[C@@H](CCCCN)C(=O)N[C@@H](Cc1ccc(O)cc1)C(=O)N[C@@H](Cc1ccc(O)cc1)C(=O)N[C@@H](Cc1ccc(O)cc1)C(=O)N[C@@H](CO)C(=O)N[C@@H](CC(N)=O)C(=O)N[C@@H](CO)C(=O)N[C@@H](Cc1ccc(O)cc1)C(=O)O [3102.1265] (H-LKYYYSNSY-OH) | 0.24
9 | CC(C)C[C@H](NC(=O)[C@H](CC(N)=O)NC(=O)[C@H](C)NC(=O)[C@H](CO)NC(=O)[C@H](CC(C)C)NC(=O)[C@H](CCCNC(=N)N)NC(=O)[C@H](CC(C)C)NC(=O)[C@@H](N)Cc1ccccc1)C(=O)N[C@@H](Cc1ccccc1)C(=O)O [3102.1266] (H-FLRLSANLF-OH) | 0.12
10 | CC(C)[C@H](NC(=O)[C@H](Cc1ccc(O)cc1)NC(=O)[C@H](CCCNC(=N)N)NC(=O)[C@@H](NC(=O)[C@H](CC(N)=O)NC(=O)[C@H](Cc1ccc(O)cc1)NC(=O)[C@H](CCCCN)NC(=O)[C@@H](N)CCCCN)C(C)C)C(=O)N[C@@H](Cc1ccccc1)C(=O)O [3102.1267] (H-KKYNVRYVF-OH) | 1
11 | CSCC[C@H](NC(=O)[C@H](C)N)C(=O)N[C@@H](CCCCN)C(=O)N[C@H](C(=O)N[C@@H](CC(=O)O)C(=O)N[C@@H](C)C(=O)N[C@@H](CC(N)=O)C(=O)N[C@@H](Cc1ccc(O)cc1)C(=O)N[C@@H](Cc1ccccc1)C(=O)O)C(C)C [3102.1268] (H-AMKVDANYF-OH) | 0.15
12 | CC(C)C[C@H](NC(=O)[C@@H](N)Cc1ccccc1)C(=O)N[C@@H](CO)C(=O)N[C@@H](CCC(=O)O)C(=O)N1CCC[C@H]1C(=O)N[C@@H](Cc1ccc(O)cc1)C(=O)N[C@@H](CO)C(=O)N[C@@H](Cc1ccc(O)cc1)C(=O)N[C@@H](Cc1ccccc1)C(=O)O [3102.1270] (H-FLSEPYSYF-OH) | 29
13 | CC(C)[C@H](NC(=O)[C@H](Cc1ccccc1)NC(=O)[C@H](Cc1c[nH]cn1)NC(=O)[C@H](CCC(N)=O)NC(=O)[C@@H](N)Cc1ccc(O)cc1)C(=O)N[C@@H](C)C(=O)N[C@@H](CCCNC(=N)N)C(=O)N[C@H](C(=O)N[C@@H](Cc1ccccc1)C(=O)O)C(C)C [3102.1278] (H-YQHFVARVF-OH) | 0.4
14 | CC(C)C[C@H](N)C(=O)N[C@@H](CCCCN)C(=O)N[C@@H](CO)C(=O)N1CCC[C@H]1C(=O)N[C@@H](CCCCN)C(=O)N[C@@H](CCCNC(=N)N)C(=O)N[C@@H](CS)C(=O)N[C@@H](CO)C(=O)N[C@@H](Cc1ccccc1)C(=O)O [3102.1282] (H-LKSPKRCSF-OH) | 2.7
15 | CSCC[C@H](NC(=O)[C@H](Cc1ccc(O)cc1)NC(=O)[C@H](CC(N)=O)NC(=O)[C@H](Cc1ccc(O)cc1)NC(=O)[C@H](CO)NC(=O)[C@H](CCCCN)NC(=O)[C@@H](NC(=O)[C@H](CCCCN)NC(=O)[C@@H](N)CCCNC(=N)N)C(C)C)C(=O)O [3102.1285] (H-RKVKSYNYM-OH) | 2.6
16 | CSCC[C@H](N)C(=O)N[C@@H](CCCCN)C(=O)N[C@@H](Cc1ccc(O)cc1)C(=O)N[C@@H](CS)C(=O)N[C@@H](CO)C(=O)N[C@@H](Cc1ccc(O)cc1)C(=O)N[C@@H](CCC(N)=O)C(=O)N[C@@H](CO)C(=O)N[C@@H](Cc1ccccc1)C(=O)O [3102.1287] (H-MKYCSYQSF-OH) | 1.6
17 | CC(C)C[C@H](N)C(=O)N[C@@H](CCCCN)C(=O)N[C@H](C(=O)N[C@H](C(=O)N[C@@H](Cc1ccccc1)C(=O)N[C@H](C(=O)N[C@@H](Cc1c[nH]cn1)C(=O)N1CCC[C@H]1C(=O)N[C@@H](Cc1ccccc1)C(=O)O)C(C)C)[C@@H](C)O)[C@@H](C)O [3102.1294] (H-LKTTFVHPF-OH) | 1.3
18 | CC[C@H](C)[C@H](NC(=O)[C@H](CO)NC(=O)[C@H](CCCNC(=N)N)NC(=O)[C@H](CCCNC(=N)N)NC(=O)[C@@H](NC(=O)[C@@H](NC(=O)[C@@H](NC(=O)[C@H](CCCCN)NC(=O)[C@@H](N)Cc1ccccc1)C(C)C)[C@@H](C)O)[C@@H](C)O)C(=O)O [3102.1295] (H-FKVTTRRSI-OH) | 4.6
19 | CC[C@H](C)[C@H](NC(=O)[C@H](CO)NC(=O)[C@@H](NC(=O)[C@H](C)NC(=O)[C@H](CC(C)C)NC(=O)[C@H](CC(N)=O)NC(=O)[C@H](CCCCN)NC(=O)[C@@H](N)Cc1ccccc1)[C@@H](C)O)C(=O)N[C@@H](Cc1ccc(O)cc1)C(=O)O [3102.1297] (H-FKNLATSIY-OH) | 1.6
20 | CC[C@H](C)[C@H](NC(=O)[C@H](CC(=O)O)NC(=O)[C@@H](NC(=O)[C@H](Cc1ccccc1)NC(=O)[C@@H](NC(=O)[C@H](CCCCN)NC(=O)[C@@H](N)Cc1ccc(O)cc1)C(C)C)[C@@H](C)O)C(=O)N[C@@H](CO)C(=O)N[C@@H](CCSC)C(=O)O [3102.1298] (H-YKVFTDISM-OH) | 2.2
21 | CSCC[C@H](NC(=O)[C@H](CCCCN)NC(=O)[C@H](CS)NC(=O)[C@H](CO)NC(=O)[C@H](CO)NC(=O)[C@H](CCC(N)=O)NC(=O)[C@@H](N)CCCNC(=N)N)C(=O)N[C@@H](C)C(=O)N[C@@H](CC(C)C)C(=O)O [3102.1299] (H-RQSSCKMAL-OH) | 19
22 | CC[C@H](C)[C@H](NC(=O)[C@H](CO)NC(=O)[C@H](CC(C)C)NC(=O)[C@@H](NC(=O)[C@H](CCCCN)NC(=O)[C@@H](N)Cc1c[nH]c2ccccc12)C(C)C)C(=O)N[C@@H](CCSC)C(=O)N[C@@H](C)C(=O)N[C@@H](Cc1ccccc1)C(=O)O [3102.1300] (H-WKVLSIMAF-OH) | 9.3
23 | CC(C)C[C@H](N)C(=O)N[C@@H](CCCCN)C(=O)N[C@@H](CO)C(=O)N[C@@H](CC(N)=O)C(=O)N[C@@H](C)C(=O)N[C@@H](CC(=O)O)C(=O)N[C@@H](Cc1c[nH]c2ccccc12)C(=O)N[C@@H](Cc1ccccc1)C(=O)N[C@@H](Cc1ccccc1)C(=O)O [3102.1304] (H-LKSNADWFF-OH) | 10
24 | CC[C@H](C)[C@H](N)C(=O)N[C@@H](CCSC)C(=O)N[C@H](C(=O)N[C@@H](CO)C(=O)NCC(=O)N[C@H](C(=O)N[C@H](C(=O)N1CCC[C@H]1C(=O)N[C@@H](Cc1ccccc1)C(=O)O)[C@@H](C)CC)C(C)C)[C@@H](C)O [3102.1305] (H-IMTSGVIPF-OH) | 0.22
25 | CC(C)[C@H](NC(=O)[C@@H](NC(=O)[C@H](C)NC(=O)[C@H](Cc1ccc(O)cc1)NC(=O)[C@@H](NC(=O)[C@H](C)NC(=O)[C@@H](N)CO)[C@@H](C)O)[C@@H](C)O)C(=O)N1CCC[C@H]1C(=O)N[C@@H](Cc1ccccc1)C(=O)O [3102.1306] (H-SATYATVPF-OH) | 12
26 | CC(C)[C@H](NC(=O)[C@H](CCC(N)=O)NC(=O)[C@H](CO)NC(=O)[C@@H](NC(=O)[C@H](CO)NC(=O)[C@@H](NC(=O)[C@H](CCC(N)=O)NC(=O)[C@@H](N)Cc1ccc(O)cc1)[C@@H](C)O)C(C)C)C(=O)N[C@@H](C)C(=O)O [3102.1307] (H-YQTSVSQVA-OH) | 1.5
27 | CSCC[C@H](NC(=O)[C@H](CC(N)=O)NC(=O)CNC(=O)[C@H](CS)NC(=O)CNC(=O)[C@H](Cc1ccc(O)cc1)NC(=O)[C@H](CCCCN)NC(=O)[C@@H](N)CCCNC(=N)N)C(=O)N[C@@H](Cc1ccccc1)C(=O)O [3102.1308] (H-RKYGCGNMF-OH) | 1.3
28 | CC[C@H](C)[C@H](NC(=O)[C@H](CC(N)=O)NC(=O)[C@H](CC(C)C)NC(=O)[C@H](Cc1ccccc1)NC(=O)[C@H](CC(C)C)NC(=O)[C@@H](N)Cc1ccccc1)C(=O)N[C@@H](CC(N)=O)C(=O)N[C@@H](Cc1c[nH]cn1)C(=O)N[C@@H](Cc1ccc(O)cc1)C(=O)O [3102.1309] (H-FLFLNINHY-OH) | 6.5
29 | CC(C)C[C@H](NC(=O)[C@@H](NC(=O)[C@H](CO)NC(=O)[C@H](C)NC(=O)[C@H](Cc1ccc(O)cc1)NC(=O)[C@H](CCC(N)=O)NC(=O)[C@H](C)N)[C@@H](C)O)C(=O)N[C@@H](CO)C(=O)N[C@H](C(=O)O)C(C)C [3102.1314] (H-AQYASTLSV-OH) | 0.16
30 | CC[C@H](C)[C@H](NC(=O)[C@H](CO)NC(=O)[C@@H]1CCCN1C(=O)[C@H](CC(C)C)NC(=O)[C@@H](NC(=O)[C@H](CCSC)NC(=O)[C@H](CCSC)NC(=O)[C@@H](N)CC(C)C)[C@@H](C)O)C(=O)N[C@@H](Cc1ccccc1)C(=O)O [3102.1317] (H-LMMTLPSIF-OH) | 0.15
